Experimental findings from patent US6503882B2, “Treatment of HIV” (Trustees of Tufts College, priority 1997, dated 2003) are described below.

Series [1] deals with PBMC from HIV-infected patients. Nature of the series: Proliferation of PBMC from HIV-infected individuals in vitro, 3H thymidine incorporation. Type of series: cell-based, human. The following applies: for stimulation of proliferation (incorporation of 3H thymidine, cpm): very low doses, FIG. 1. How it is done:
Peripheral blood mononuclear cells (PBMC) were obtained by standard methods from HIV-infected individuals, and from uninfected individuals. Varying dosages of KBP or VBP were contacted with the PBMC in vitro, and stimulation of proliferation was measured by incorporation of ^3H thymidine (cpm).
(Incorporation of labelled thymidine or its analogues reports DNA synthesis.)

[2] abbreviates: relatively low doses (10^−7M), FIG. 2.

As to `NCCCC[C@H](N)C(=O)N1CCC[C@H]1B(O)O` [Lys-boroPro], the “proliferation of PBMC of HIV-infected patients” value in series [1] (higher doses (10^−4M), FIG. 2) was “did not have this effect”; in series [1] (setting [2]) it was “caused proliferation”. Also, in series [1], the “stimulation of proliferation (incorporation of 3H thymidine, cpm)” value was “stimulated proliferation”.
For the compound `CC(C)[C@H](N)C(=O)N1CCC[C@H]1B(O)O` [Val-boroPro], in the series on T-cells, the cytotoxicity result is listed as “approximately 50%”, the “cytotoxicity to T-cells” value is “highly cytotoxic” and the “toxicity observed in vitro” value is listed as “greater than 80%”. For the same compound, the “stimulation of PBMC of HIV-infected patients” value in series [1] (concentrations of 10^−6, FIG. 2) is “there was stimulation”. For the same compound, in series [1] (higher doses (10^−4M), FIG. 2), the “proliferation of PBMC of HIV-infected patients” value is given as “did not have this effect”. For the same compound, the “proliferation of PBMC of HIV-infected patients” value in series [1] (setting [2]) was “caused proliferation”. For the same compound, in series [1], the “stimulation of proliferation (incorporation of 3H thymidine, cpm)” value is “stimulated proliferation”.
